# Entries after “also recorded” stand apart in the source; their conditions may differ. Read-outs that look alike come from different tables or passages of the source.
# Legend:
# NCI/ADR cells = test: Cytotoxicity, NCI/ADR cells that overexpress P-glycoprotein; details: for Resistance (NCI/ADR relative to MCF-7): P-glycoprotein
# Text: (§2) These cell lines are resistant to anticancer drugs due to overexpression of the transport proteins P-glycoprotein or MRP1.
# MCF-7/VP cells = test: Cytotoxicity, MCF-7/VP cells that overexpress MRP1; details: for Resistance (MCF-7/VP relative to MCF-7): MRP1
# Text: as §2
# [1] = system: NCI 60 human tumor cell lines; test: NCI IVCLSP growth inhibition, whole panel (text summaries); type: cell-based; details: NCI 60 tumor panel
# Procedure: FIG. 1 presents nine compounds that were tested using the National Cancer Institute (NCI) 60 human tumor cell lines. The cells lines, which represent leukemia, melanoma, and cancers of the lung, colon, brain, ovary, breast, prostate, and kidney, are listed in Table 1.
# Compounds 1-9 were tested according to the NCI Developmental Therapeutics Program (DTP) In Vitro Cell Line Screening Project (IVCLSP). […] Methodology for testing under the IVCLSP is as follows: The human tumor cell lines of the cancer screening panel are grown in RPMI 1640 medium containing 5% fetal bovine serum and 2 mM L-glutamine. For a typical screening experiment, cells are inoculated into 96 well microtiter plates in 100 μL at plating densities ranging from 5,000 to 40,000 cells/well depending on the doubling time of individual cell lines. After cell inoculation, the microtiter plates are incubated at 37° C., 5% CO2, 95% air and 100% relative humidity for 24 h prior to addition of experimental drugs.
# After 24 h, two plates of each cell line are fixed in situ with TCA, to represent a measurement of the cell population for each cell line at the time of drug addition (Tz). Experimental drugs are solubilized in dimethyl sulfoxide at 400-fold the desired final maximum test concentration and stored frozen prior to use. At the time of drug addition, an aliquot of frozen concentrate is thawed and diluted to twice the desired final maximum test concentration with complete medium containing 50 μg/ml gentamicin. Additional four, 10-fold or ½ log serial dilutions are made to provide a total of five drug concentrations plus control. Aliquots of 100 μl of these different drug dilutions are added to the appropriate microtiter wells already containing 100 μl of medium, resulting in the required final drug concentrations.
# Following drug addition, the plates are incubated for an additional 48 h at 37° C., 5% CO2, 95% air, and 100% relative humidity. For adherent cells, the assay is terminated by the addition of cold TCA. Cells are fixed in situ by the gentle addition of 50 μl of cold 50% (w/v) TCA (final concentration, 10% TCA) and incubated for 60 minutes at 4° C. The supernatant is discarded, and the plates are washed five times with tap water and air dried. Sulforhodamine B (SRB) solution (100 μl) at 0.4% (w/v) in 1% acetic acid is added to each well, and plates are incubated for 10 minutes at room temperature. After staining, unbound dye is removed by washing five times with 1% acetic acid and the plates are air dried. Bound stain is subsequently solubilized with 10 mM trizma base, and the absorbance is read on an automated plate reader at a wavelength of 515 nm. For suspension cells, the methodology is the same except that the assay is terminated by fixing settled cells at the bottom of the wells by gently adding 50 μl of 80% TCA (final concentration, 16% TCA). Using the seven absorbance measurements [time zero, (Tz), control growth, (C), and test growth in the presence of drug at the five concentration levels (Ti)], the percentage growth is calculated at each of the drug concentrations levels. Percentage growth inhibition is calculated as: [(Ti−Tz)/(C−Tz)]×100 for concentrations for which Ti>/=Tz [(Ti−Tz)/Tz]×100 for concentrations for which Ti<Tz.
# Three dose response parameters are calculated for each experimental agent. […] The drug concentration resulting in total growth inhibition (TGI) is calculated from Ti=Tz. […]
# [2] = system: T24 human bladder carcinoma cells; test: Cytotoxicity, T24 cells; type: cell-based; details: for IC50: mean ± SEM for 3 experiments
# P-glycoprotein = biological target: T1, P-glycoprotein (Homo sapiens, UniProt P08183); test: P-glycoprotein antagonism: sensitivity of NCI/ADR cells to vinblastine; type: cell-based; details: for effect on P-glycoprotein-mediated resistance (in words): absence or presence of 50 nM vinblastine
# T1 construct: NCI/ADR cells that overexpress P-glycoprotein; endogenous in cells; host or cells: NCI/ADR cells
# Text: To determine if this is due to inhibition of drug transport activity by these proteins, the effects of these compounds on P-glycoprotein were further characterized. The effects of the compounds on the sensitivity of NCI/ADR cells to vinblastine and of MCF-7/VP cells to vincristine were examined to evaluate antagonism of P-glycoprotein and MRP1, respectively. FIGS. 4a-b present graphs of antagonism score versus concentration for P-glycoprotein and MRP1, respectively.
# The Pgp antagonism score is calculated as the percentage survival of cells in the absence of vinblastine/percentage survival in the presence of vinblastine. […] The MRP1 antagonism score is calculated as the percentage survival of cells in the absence of vincristine/percentage survival in the presence of vincristine. […] Concentrations of Compounds 1-5 above their IC50 toward MCF-7 cells are not indicated. Data for one of three similar experiments is shown.
# MCF-7 cells = test: Cytotoxicity, drug-sensitive MCF-7 cells
# Text: as §2
# p53 = test: Western blot, p53 expression in MCF-7 cells; type: cell-based, human; details: 24 hours, various concentrations
# Procedure: (§1) To further characterize the cell cycle effects of Compound 1 on human tumor cells, MCF-7 cells were treated for 24 hours with various concentrations of Compound 1, vinblastine, or TAXOL (paclitaxel). Cells were then harvested, lysed, and analyzed for levels of expression of p53 and WAF1 by Western Blot analyses. […] Compound 1 is identified as “149” in these figures. […] None of these treatments affected the expression of bcl-2 or P-tubulin in the MCF-7 cells.
# [3] = system: HL-60 human promyelocytic leukemia cells; test: Flow cytometric cell cycle phase distribution; type: cell-based; details: 24 hours treatment; for increase of the percentage of cells in the G2/M phases: HL-60; for cell cycle distribution, G2/M / cell cycle distribution, G9/G1 / cell cycle distribution, S: percentage of HL-60 cells
# Procedure: Flow cytometric analyses were used to assess the effects of Compound 1 and various antimicrotubule drugs on the cell cycle phase distributions of HL-60 human promyelocytic leukemia cells. The percentage of cells in the G2/M phases were increased approximately 2-fold by treatment of the cells for 24 hours with either TAXOL (paclitaxel), vinblastine, colchicine, or Compound 1.
# WAF1 = test: Western blot, WAF1 expression in MCF-7 cells; type: cell-based, human; details: 24 hours, various concentrations
# Procedure: as §1
# [4] = system: A-10 rat smooth muscle cells; test: Microtubule structure, indirect immunofluorescence, A-10 cells; type: cell-based; details: 24 hours; 625 nM TAXOL, 167 nM vinblastine, 900 nM Compound 1
# Procedure: Because of the morphological effects of Compound 1 on cultured cells and the NCI COMPARE analysis results described above, the effects of vinblastine, TAXOL (paclitaxel), and Compound 1 on microtubule structure were examined. For these studies, A-10 rat smooth muscle cells were used since they grow as flat monolayers that are amenable to imaging. The A-10 cells were treated for 24 hours with EtOH (control), 625 nM TAXOL (paclitaxel), 167 nM vinblastine, and 900 nM of Compound 1. Microtubules were then visualized by indirect immunofluoresence staining with B-tubulin antibodies. FIGS. 2a-d present representative fields for the control, TAXOL (paclitaxel), vinblastine, and Compound 1 (“149”), respectively. None of these compounds affected the morphology of stress fibers composed of microfilaments.
# [5] = system: T24, MCF-7, NCI/ADR, MCF-7/VP; test: Cytotoxicity, panel of human tumor cell lines of Table 3 (text summaries)
# Text: as §2
# [6] = read-out: Cytotoxicity IC50, NCI/ADR, mean ± SEM for 3 experiments
# [7] = read-out: Cytotoxicity IC50, MCF-7/VP, mean ± SEM for 3 experiments
# [8] = read-out: Cytotoxicity IC50, MCF-7, mean ± SEM for 3 experiments
# [9] = Homo sapiens, NCI/ADR-RES, read-out: drug sensitivity (IC50), NCI/ADR
# [10] = Homo sapiens, MCF7-VP, read-out: drug sensitivity (IC50), MCF-7/VP
# [11] = Homo sapiens, MCF7, read-out: drug sensitivity (IC50), MCF-7
# T1 sequence (P08183 whole entry): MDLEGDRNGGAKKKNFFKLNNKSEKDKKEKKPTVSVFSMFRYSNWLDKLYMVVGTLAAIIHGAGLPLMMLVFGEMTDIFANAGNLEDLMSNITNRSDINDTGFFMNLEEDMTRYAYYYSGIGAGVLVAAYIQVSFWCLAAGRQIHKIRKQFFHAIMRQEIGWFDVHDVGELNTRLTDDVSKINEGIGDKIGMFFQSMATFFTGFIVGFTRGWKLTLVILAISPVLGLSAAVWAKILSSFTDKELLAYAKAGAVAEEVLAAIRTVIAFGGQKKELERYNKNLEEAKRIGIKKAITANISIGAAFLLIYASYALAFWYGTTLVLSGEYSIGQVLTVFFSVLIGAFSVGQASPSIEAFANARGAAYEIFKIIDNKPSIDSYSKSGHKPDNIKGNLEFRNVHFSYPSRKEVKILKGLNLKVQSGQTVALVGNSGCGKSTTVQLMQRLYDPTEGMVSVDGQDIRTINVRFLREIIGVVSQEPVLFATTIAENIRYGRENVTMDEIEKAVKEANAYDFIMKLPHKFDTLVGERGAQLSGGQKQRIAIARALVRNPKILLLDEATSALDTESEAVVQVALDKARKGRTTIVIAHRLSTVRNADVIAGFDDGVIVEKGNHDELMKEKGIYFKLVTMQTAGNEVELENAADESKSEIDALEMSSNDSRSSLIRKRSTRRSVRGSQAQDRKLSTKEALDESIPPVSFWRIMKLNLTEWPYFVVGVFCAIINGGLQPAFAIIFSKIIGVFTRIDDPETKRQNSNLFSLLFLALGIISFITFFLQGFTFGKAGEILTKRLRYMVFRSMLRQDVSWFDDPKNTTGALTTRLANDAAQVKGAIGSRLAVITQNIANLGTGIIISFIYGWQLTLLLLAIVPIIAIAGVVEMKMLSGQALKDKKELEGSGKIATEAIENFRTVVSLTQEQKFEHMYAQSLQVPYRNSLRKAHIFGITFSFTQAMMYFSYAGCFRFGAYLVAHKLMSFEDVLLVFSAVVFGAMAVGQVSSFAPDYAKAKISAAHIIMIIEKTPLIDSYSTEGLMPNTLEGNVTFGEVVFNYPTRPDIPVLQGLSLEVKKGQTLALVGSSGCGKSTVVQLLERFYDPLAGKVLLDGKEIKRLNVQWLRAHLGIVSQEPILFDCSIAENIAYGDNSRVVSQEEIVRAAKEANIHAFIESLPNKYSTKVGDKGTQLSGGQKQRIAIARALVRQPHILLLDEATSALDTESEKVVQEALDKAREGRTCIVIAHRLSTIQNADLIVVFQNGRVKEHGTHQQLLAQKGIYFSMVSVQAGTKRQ
SMILES,IC50 (NCI/ADR cells; [6]),IC50 (MCF-7/VP cells; [7]),IC50 [2],effect on P-glycoprotein-mediated resistance (in words) (P-glycoprotein),IC50 (MCF-7 cells; [8]),IC50 (NCI/ADR cells; [9]),Resistance (NCI/ADR relative to MCF-7) (NCI/ADR cells),increase of the percentage of cells in the G2/M phases [3],"cell cycle distribution, G2/M [3]","cell cycle distribution, G9/G1 [3]","cell cycle distribution, S [3]",IC50 (MCF-7/VP cells; [10]),Resistance (MCF-7/VP relative to MCF-7) (MCF-7/VP cells),IC50 (MCF-7 cells; [11]),effect of P-glycoprotein / MRP1 overexpression on cell sensitivity (in words) [5],other results
Cc1nc(N)nc2c1c(CCc1ccccc1)cn2Cc1ccccc1 [Compound 5],18200 ± 7400 nM,118000 ± 6000 nM,12700 ± 2300 nM,dose-dependent sensitization,10700 ± 4700 nM,,,,,,,,,,,"GI50 values, level across the tumor cell lines (in words) [1]: millimolar or less range for 52 of the tumor cell lines; also recorded: micromolar GI50 values for three of the tumor cell lines"
"CC[C@]1(O)C[C@@H]2CN(CCc3c([nH]c4ccccc34)[C@@](C(=O)OC)(c3cc4c(cc3OC)N(C)[C@H]3[C@@](O)(C(=O)OC)[C@H](OC(C)=O)[C@]5(CC)C=CCN6CC[C@]43[C@@H]65)C2)C1 [Vinblastine, vinblastine]",,,,,,> 375 nM,>134,approximately 2 fold,10.1 ± 0.3,83.3 ± 1.3,6.6 ± 1.6,3 ± 0.6 nM,1.1,2.8 ± 0.5 nM,,level of expression of p53 (in words) (p53): marked increases; level of expression of WAF1 (in words) (WAF1): marked increases; effect on microtubule structure (in words) [4]: caused marked depletion of cellular microtubules
"COc1cc2c(c(OC)c1OC)-c1ccc(OC)c(=O)cc1[C@@H](NC(C)=O)CC2 [Colchicine, colchicine]",,,,,,,,approximately 2 fold,11.9 ± 0.3,84.1 ± 0.7,4.0 ± 1.4,,,,,
"CC(=O)O[C@H]1C(=O)[C@@]2(C)[C@H]([C@H](OC(=O)c3ccccc3)[C@]3(O)C[C@H](OC(=O)[C@H](O)[C@@H](NC(=O)c4ccccc4)c4ccccc4)C(C)=C1C3(C)C)[C@]1(OC(C)=O)CO[C@@H]1C[C@@H]2O [TAXOL (paclitaxel), paclitaxel]",,,,,,2700 ± 500 nM,1080,approximately 2 fold,10.5 ± 0.1,67.3 ± 0.4,22.2 ± 0.4,2.8 ± 0.6 nM,1.1,2.5 ± 0.6 nM,,level of expression of p53 (in words) (p53): marked increases; level of expression of WAF1 (in words) (WAF1): marked increases; effect on microtubule structure (in words) [4]: promoted increased staining of microtubule clusters
"CC[C@]1(O)C[C@H]2CN(CCc3c([nH]c4ccccc34)[C@@](C(=O)OC)(c3cc4c(cc3OC)N(C=O)[C@H]3[C@@](O)(C(=O)OC)[C@H](OC(C)=O)[C@]5(CC)C=CCN6CC[C@]43[C@@H]65)C2)C1 [Vincristine, vincristine, reference compound]",,,,,,100 nM,167,,,,,9.3 ± 1.4 nM,15.5,0.6 ± 0.1 nM,overexpression of MRP1 also confers substantial resistance,
COc1ccc(CCc2cn(Cc3ccccc3)c3nc(N)nc(C)c23)cc1 [Compound 2],21700 ± 4400 nM,22700 ± 3700 nM,31700 ± 1700 nM,dose-dependent sensitization,13000 ± 3500 nM,,,,,,,,,,,"change of cytotoxic potency by substitution (in words) ([2]; T24, relative to unsubstituted Compound 5): decreased the cytotoxic potency"
COc1ccccc1CCc1cn(Cc2ccccc2)c2nc(N)nc(C)c12 [Compound 4],2700 ± 400 nM,2600 ± 100 nM,2500 ± 300 nM,dose-dependent sensitization,2300 ± 600 nM,,,,,,,,,,eliminated any resistance due to overexpression of either P-glycoprotein or MRP1,"cytotoxic potency, better than the 3- or 4-OMe [5]: about 10 times; cytotoxic potency, better than the unsubstituted phenyl analog Compound 5 [5]: ~5 times; less potent as an antimitotic agent than the 3,4,5-triOMe analog [5]: about 10 times; cytotoxic potency (in words) ([5]; all tested cell lines): substantially increased the potency toward all of the tested cell lines; GI50 values, level across the tumor cell lines (in words) [1]: micromolar to millimolar range; more potent than the others in reversing P-glycoprotein-mediated resistance (P-glycoprotein; 50 nM vinblastine): approximately 10 fold; effect on P-glycoprotein-mediated resistance (in words) (P-glycoprotein; listed as 2-OMe analog): effective at reversing P-glycoprotein mediated resistance"
"N.N.[Cl][Pt][Cl] [Cisplatin, cisplatin, reference compound]",,,,,,,1.1,,,,,,0.6,,insensitive to transporter expression,"IC50 (NCI/ADR cells; read-out: drug sensitivity (IC50), NCI/ADR, Table 4, P-glycoprotein overexpressing, mean ± SEM for 3 experiments): 12200 ± 4200 nM; IC50 (MCF-7/VP cells; read-out: drug sensitivity (IC50), MCF-7/VP, Table 4, MRP1 overexpressing, mean ± SEM for 3 experiments): 7000 ± 2900 nM; IC50 (MCF-7 cells; read-out: drug sensitivity (IC50), MCF-7, Table 4, mean ± SEM for 3 experiments): 11500 ± 4100 nM"
